Results published in ChEMBL document CHEMBL4184091, “Microwave-assisted synthesis of novel 5-substituted benzylidene amino-2-butyl benzofuran-3-yl-4-methoxyphenyl methanones as antileishmanial and antioxidant agents” (Bioorg Med Chem Lett, 2018).
In brackets after ≈: the same amount, converted by molar mass. Blank lines part the entries; values can stand above or below the compound they belong to.

Columns and labels:
Leishmania donovani [1] = experiment: Antileishmanial activity against promastigote form of Leishmania donovani NHOM/IN/80/DD8 assessed as decrease in cell viability after 72 hrs by MTT assay; format: functional, organism-based; conditions: NHOM/IN/80/DD8, 72 h
[2] = Antioxidant activity assessed as DPPH radical scavenging activity after 20 to 30 mins; format: functional
Leishmania donovani [3] = experiment: Potency index, ratio of sodium stibogluconate IC50 to compound IC50 for promastigote form of Leishmania donovani NHOM/IN/80/DD8; format: functional

Structure (SMILES): CCCCc1oc2ccc(/N=C/c3ccc(OC)cc3OC)cc2c1C(=O)c1ccc(OC)cc1
- IC50 (Leishmania donovani [1]): 52 µg/mL (≈ 110 µM)
- IC50 [2]: 20.53 µg/mL (≈ 43.5 µM)

Structure (SMILES): CCCCc1oc2ccc(/N=C/c3ccc(OCC)c(OC)c3)cc2c1C(=O)c1ccc(OC)cc1
- IC50 (Leishmania donovani [1]): 238 µg/mL (≈ 491 µM)
- IC50 [2]: 14.78 µg/mL (≈ 30.4 µM)

Structure (SMILES): CCCCc1oc2ccc(/N=C/c3ccc(CC)cc3)cc2c1C(=O)c1ccc(OC)cc1
- IC50 (Leishmania donovani [1]): 59.3 µg/mL (≈ 135 µM)
- IC50 [2]: 3.69 µg/mL (≈ 8.39 µM)

Structure (SMILES): CCCCc1oc2ccc(/N=C/c3ccc(C#N)cc3)cc2c1C(=O)c1ccc(OC)cc1
- IC50 (Leishmania donovani [1]): 101 µg/mL (≈ 231 µM)
- IC50 [2]: 27.16 µg/mL (≈ 62.2 µM)

Structure (SMILES): CCCCc1oc2ccc(/N=C/c3ccc([N+](=O)[O-])cc3)cc2c1C(=O)c1ccc(OC)cc1
- IC50 (Leishmania donovani [1]): 56 µg/mL (≈ 123 µM)
- IC50 [2]: 53.11 µg/mL (≈ 116 µM)

Structure (SMILES): N=C(N)c1ccc(OCCCCCOc2ccc(C(=N)N)cc2)cc1 [PENTAMIDINE]
- IC50 (Leishmania donovani [1]): 16.1 µg/mL (≈ 47.4 µM)

Now from value to compound, other results behind:

- IC50 [2]: 75.86 µg/mL (≈ 170 µM)
Structure (SMILES): CCCCc1oc2ccc(/N=C/c3ccc(Cl)cc3)cc2c1C(=O)c1ccc(OC)cc1
- IC50 (Leishmania donovani [1]): 372 µg/mL (≈ 834 µM)

- IC50 [2]: 34.16 µg/mL (≈ 74.8 µM)
Structure (SMILES): CCCCc1oc2ccc(/N=C/c3cccc([N+](=O)[O-])c3)cc2c1C(=O)c1ccc(OC)cc1
- IC50 (Leishmania donovani [1]): 103 µg/mL (≈ 226 µM)

- IC50 [2]: 34.24 µg/mL (≈ 83.2 µM)
Structure (SMILES): CCCCc1oc2ccc(/N=C/c3ccccc3)cc2c1C(=O)c1ccc(OC)cc1
- IC50 (Leishmania donovani [1]): 279 µg/mL (≈ 677 µM)
- Ratio IC50 (Leishmania donovani [3]): 2

- IC50 [2]: 100.3 µg/mL (≈ 234 µM)
Structure (SMILES): CCCCc1oc2ccc(/N=C/c3ccc(F)cc3)cc2c1C(=O)c1ccc(OC)cc1
- IC50 (Leishmania donovani [1]): 77.4 µg/mL (≈ 180 µM)

- IC50 [2]: 2.44 µg/mL (≈ 5.08 µM)
Structure (SMILES): CCCCc1oc2ccc(/N=C/c3ccc(Cl)cc3Cl)cc2c1C(=O)c1ccc(OC)cc1
- IC50 (Leishmania donovani [1]): 124 µg/mL (≈ 258 µM)

- IC50 [2]: 99.43 µg/mL (≈ 233 µM)
Structure (SMILES): CCCCc1oc2ccc(/N=C/c3ccccc3O)cc2c1C(=O)c1ccc(OC)cc1
- IC50 (Leishmania donovani [1]): 115 µg/mL (≈ 268 µM)
- Ratio IC50 (Leishmania donovani [3]): 4

- IC50 [2]: 22.79 µg/mL (≈ 53.3 µM)
Structure (SMILES): CCCCc1oc2ccc(/N=C/c3ccc(O)cc3)cc2c1C(=O)c1ccc(OC)cc1
- IC50 (Leishmania donovani [1]): 144 µg/mL (≈ 337 µM)
- Ratio IC50 (Leishmania donovani [3]): 4

- IC50 [2]: 7.55 µg/mL (≈ 17 µM)
Structure (SMILES): CCCCc1oc2ccc(/N=C/c3ccc(O)cc3O)cc2c1C(=O)c1ccc(OC)cc1
- IC50 (Leishmania donovani [1]): 109 µg/mL (≈ 246 µM)
- Ratio IC50 (Leishmania donovani [3]): 4

- IC50 [2]: 3.31 µg/mL (≈ 18.8 µM)
Structure (SMILES): O=C1O[C@H]([C@@H](O)CO)C(O)=C1O [ASCORBIC ACID]
